According to ChEMBL document CHEMBL5058646 (2022):

Key:
[1] = biological target: Serine/threonine-protein kinase 4 (Homo sapiens) (UniProt Q13043); test: STK4 SGC Tm panel (DSF); conditions: Compound concentration 20.0 uM
[2] = biological target: Calcium/calmodulin-dependent protein kinase type 1G (Homo sapiens) (UniProt Q96NX5); test: CAMK1G SGC Tm panel (DSF); conditions: Compound concentration 20.0 uM
[3] = biological target: Casein kinase I isoform delta (Homo sapiens) (UniProt P48730); test: CSNK1D SGC Tm panel (DSF); conditions: Compound concentration 20.0 uM
Casein kinase I isoform delta (Homo sapiens), sequence (P48730 whole entry, looked up, canonical isoform): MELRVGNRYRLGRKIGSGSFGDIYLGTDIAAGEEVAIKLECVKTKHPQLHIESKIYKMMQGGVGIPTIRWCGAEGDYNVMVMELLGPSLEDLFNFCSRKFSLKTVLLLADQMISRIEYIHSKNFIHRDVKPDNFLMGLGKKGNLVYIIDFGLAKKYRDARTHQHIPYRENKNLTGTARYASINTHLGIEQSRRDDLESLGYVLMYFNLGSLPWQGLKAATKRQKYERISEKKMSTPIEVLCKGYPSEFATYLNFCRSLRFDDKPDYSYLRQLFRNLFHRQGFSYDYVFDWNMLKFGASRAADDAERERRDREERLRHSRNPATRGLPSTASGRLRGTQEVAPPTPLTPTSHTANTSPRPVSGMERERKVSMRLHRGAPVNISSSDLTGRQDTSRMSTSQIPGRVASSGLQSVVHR

[4] = biological target: Serine/threonine-protein kinase 17A (Homo sapiens) (UniProt Q9UEE5); test: STK17A SGC Tm panel (DSF); conditions: Compound concentration 20.0 uM
Serine/threonine-protein kinase 17A (Homo sapiens), sequence (Q9UEE5 whole entry): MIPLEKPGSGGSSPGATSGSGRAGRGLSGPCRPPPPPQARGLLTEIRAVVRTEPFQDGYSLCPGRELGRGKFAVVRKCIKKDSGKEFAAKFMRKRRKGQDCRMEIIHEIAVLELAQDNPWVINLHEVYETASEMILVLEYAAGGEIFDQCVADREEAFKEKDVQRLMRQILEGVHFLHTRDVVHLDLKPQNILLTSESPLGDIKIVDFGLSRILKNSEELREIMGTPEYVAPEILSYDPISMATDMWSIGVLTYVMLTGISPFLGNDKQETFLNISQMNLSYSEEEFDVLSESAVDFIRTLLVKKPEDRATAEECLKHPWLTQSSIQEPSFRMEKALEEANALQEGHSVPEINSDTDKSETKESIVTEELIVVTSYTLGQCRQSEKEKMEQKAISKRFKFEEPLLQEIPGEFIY

[5] = biological target: Transcription initiation factor TFIID subunit 1 (Homo sapiens) (UniProt P21675); test: TAF1 SGC Tm panel (DSF); conditions: Compound concentration 20.0 uM
[6] = biological target: T1, Telomere zinc finger-associated protein (Homo sapiens) (UniProt P10074); conditions: SUD4, Compound concentration 1.0 uM
T1 sequence (whole entry): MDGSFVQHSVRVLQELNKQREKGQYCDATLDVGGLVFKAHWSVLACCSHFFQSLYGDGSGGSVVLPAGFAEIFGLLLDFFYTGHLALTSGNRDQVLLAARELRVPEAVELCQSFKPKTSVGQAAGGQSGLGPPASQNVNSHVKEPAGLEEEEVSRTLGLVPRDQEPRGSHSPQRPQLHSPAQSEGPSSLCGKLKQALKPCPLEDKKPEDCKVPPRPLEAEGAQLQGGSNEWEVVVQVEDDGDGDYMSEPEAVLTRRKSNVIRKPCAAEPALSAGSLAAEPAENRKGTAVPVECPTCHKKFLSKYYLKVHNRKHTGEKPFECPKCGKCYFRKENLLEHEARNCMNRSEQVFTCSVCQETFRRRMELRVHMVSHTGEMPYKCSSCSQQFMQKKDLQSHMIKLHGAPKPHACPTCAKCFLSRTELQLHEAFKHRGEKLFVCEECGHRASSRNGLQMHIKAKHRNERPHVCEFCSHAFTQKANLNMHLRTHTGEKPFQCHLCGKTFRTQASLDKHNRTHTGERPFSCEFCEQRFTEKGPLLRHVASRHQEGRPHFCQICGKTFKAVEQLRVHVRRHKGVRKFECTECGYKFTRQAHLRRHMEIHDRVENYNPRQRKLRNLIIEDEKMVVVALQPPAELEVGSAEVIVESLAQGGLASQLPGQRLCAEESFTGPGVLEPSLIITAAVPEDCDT

[7] = biological target: Ribosomal protein S6 kinase alpha-1 (Homo sapiens) (UniProt Q15418); test: RPS6KA1 SGC Tm panel (DSF); conditions: Compound concentration 20.0 uM
Ribosomal protein S6 kinase alpha-1 (Homo sapiens), sequence (Q15418 whole entry): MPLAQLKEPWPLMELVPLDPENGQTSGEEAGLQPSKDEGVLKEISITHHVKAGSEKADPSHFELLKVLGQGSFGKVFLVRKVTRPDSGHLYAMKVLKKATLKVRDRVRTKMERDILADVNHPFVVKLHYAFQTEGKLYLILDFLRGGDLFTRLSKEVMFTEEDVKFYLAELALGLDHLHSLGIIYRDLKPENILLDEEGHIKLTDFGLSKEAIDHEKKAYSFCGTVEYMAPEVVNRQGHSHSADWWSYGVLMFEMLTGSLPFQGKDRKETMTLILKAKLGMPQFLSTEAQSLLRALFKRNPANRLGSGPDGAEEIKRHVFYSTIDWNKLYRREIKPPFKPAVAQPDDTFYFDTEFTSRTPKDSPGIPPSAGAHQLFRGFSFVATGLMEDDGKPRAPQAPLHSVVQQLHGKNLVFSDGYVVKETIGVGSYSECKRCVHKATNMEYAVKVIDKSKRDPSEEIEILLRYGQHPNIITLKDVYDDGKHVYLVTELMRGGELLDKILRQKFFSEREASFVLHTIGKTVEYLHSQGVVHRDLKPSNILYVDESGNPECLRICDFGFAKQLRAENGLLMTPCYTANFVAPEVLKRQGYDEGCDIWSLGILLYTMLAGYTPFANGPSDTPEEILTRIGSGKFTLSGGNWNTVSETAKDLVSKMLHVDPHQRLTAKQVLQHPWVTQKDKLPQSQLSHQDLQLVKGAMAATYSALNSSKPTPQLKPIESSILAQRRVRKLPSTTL

[8] = biological target: Dual specificity tyrosine-phosphorylation-regulated kinase 1A (Homo sapiens) (UniProt Q13627); test: DYRK1A SGC Tm panel (DSF); conditions: Compound concentration 20.0 uM
[9] = biological target: T2, Zinc finger and BTB domain-containing protein 11 (Homo sapiens) (UniProt O95625); conditions: SUD4, Compound concentration 1.0 uM
T2 sequence (whole entry): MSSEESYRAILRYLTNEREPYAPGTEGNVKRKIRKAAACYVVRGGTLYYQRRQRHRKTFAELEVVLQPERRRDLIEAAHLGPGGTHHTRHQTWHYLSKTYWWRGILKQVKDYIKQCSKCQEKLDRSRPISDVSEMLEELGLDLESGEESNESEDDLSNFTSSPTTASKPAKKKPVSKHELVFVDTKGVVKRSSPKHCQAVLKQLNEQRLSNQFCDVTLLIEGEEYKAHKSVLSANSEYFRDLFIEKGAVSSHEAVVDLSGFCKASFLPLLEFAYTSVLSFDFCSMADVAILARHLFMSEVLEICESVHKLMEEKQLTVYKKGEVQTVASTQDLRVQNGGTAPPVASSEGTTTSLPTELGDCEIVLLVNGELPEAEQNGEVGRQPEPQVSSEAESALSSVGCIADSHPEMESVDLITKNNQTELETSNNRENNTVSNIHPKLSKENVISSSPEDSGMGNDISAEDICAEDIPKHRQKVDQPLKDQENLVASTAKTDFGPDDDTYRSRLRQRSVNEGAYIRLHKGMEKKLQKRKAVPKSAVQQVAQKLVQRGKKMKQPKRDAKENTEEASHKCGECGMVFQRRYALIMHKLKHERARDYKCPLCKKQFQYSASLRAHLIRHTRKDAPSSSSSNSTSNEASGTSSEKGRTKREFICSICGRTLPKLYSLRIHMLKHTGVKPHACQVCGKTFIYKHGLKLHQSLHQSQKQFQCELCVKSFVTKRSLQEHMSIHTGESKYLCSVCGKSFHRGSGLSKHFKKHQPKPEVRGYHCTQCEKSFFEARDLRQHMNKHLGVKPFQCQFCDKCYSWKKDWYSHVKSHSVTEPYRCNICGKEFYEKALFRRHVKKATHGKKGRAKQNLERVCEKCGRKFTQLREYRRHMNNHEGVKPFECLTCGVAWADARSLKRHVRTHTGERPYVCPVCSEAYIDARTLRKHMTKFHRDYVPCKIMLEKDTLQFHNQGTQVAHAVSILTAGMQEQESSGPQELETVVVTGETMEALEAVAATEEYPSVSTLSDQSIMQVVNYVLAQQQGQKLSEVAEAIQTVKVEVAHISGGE

[10] = biological target: 5-hydroxytryptamine receptor 6 (Homo sapiens) (UniProt P50406); conditions: Compound concentration 10.0 uM
5-hydroxytryptamine receptor 6 (Homo sapiens), sequence (P50406 whole entry): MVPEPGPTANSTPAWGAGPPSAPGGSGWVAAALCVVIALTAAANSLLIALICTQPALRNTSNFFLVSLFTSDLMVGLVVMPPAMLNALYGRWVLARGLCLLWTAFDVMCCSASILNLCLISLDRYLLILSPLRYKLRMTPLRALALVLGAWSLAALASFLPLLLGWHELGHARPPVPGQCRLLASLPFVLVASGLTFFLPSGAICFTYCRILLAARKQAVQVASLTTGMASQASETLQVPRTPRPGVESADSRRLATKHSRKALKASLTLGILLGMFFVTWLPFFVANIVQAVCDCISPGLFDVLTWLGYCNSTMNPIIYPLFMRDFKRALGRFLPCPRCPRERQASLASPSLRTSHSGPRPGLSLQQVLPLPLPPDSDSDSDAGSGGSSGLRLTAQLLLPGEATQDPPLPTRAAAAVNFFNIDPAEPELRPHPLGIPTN

[11] = biological target: Cyclin-dependent kinase-like 1 (Homo sapiens) (UniProt Q00532); test: CDKL1 SGC Tm panel (DSF); conditions: Compound concentration 20.0 uM
Cyclin-dependent kinase-like 1 (Homo sapiens), sequence (Q00532 whole entry): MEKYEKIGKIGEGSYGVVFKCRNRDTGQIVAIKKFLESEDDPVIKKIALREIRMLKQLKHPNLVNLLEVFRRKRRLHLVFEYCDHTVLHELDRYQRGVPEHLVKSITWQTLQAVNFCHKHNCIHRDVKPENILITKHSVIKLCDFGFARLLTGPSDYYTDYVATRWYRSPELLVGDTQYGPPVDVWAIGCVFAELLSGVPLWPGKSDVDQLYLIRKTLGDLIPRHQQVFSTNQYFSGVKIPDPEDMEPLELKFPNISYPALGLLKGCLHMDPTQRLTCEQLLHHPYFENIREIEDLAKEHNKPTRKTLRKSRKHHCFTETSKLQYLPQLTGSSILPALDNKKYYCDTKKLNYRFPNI

[12] = biological target: Serine/threonine-protein kinase WNK1 (Homo sapiens) (UniProt Q9H4A3); test: WNK1 SGC Tm panel (DSF); conditions: Compound concentration 20.0 uM
[13] = biological target: Serine/threonine-protein kinase 3 (Homo sapiens) (UniProt Q13188); test: STK3 SGC Tm panel (DSF); conditions: Compound concentration 20.0 uM
Serine/threonine-protein kinase 3 (Homo sapiens), sequence (Q13188 whole entry): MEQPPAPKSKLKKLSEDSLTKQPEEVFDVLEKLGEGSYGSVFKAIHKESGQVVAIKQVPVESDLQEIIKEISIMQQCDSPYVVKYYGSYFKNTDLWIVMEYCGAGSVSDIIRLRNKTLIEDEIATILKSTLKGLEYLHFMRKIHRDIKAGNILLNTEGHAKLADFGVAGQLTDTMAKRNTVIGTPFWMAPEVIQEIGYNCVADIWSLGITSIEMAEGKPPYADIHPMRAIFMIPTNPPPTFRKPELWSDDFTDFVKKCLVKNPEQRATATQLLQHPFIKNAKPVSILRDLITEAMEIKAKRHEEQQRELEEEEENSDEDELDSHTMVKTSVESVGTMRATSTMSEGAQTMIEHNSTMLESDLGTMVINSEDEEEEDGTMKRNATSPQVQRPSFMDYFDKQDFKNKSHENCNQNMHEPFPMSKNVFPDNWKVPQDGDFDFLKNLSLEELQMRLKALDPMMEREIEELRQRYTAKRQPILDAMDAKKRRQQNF

[14] = biological target: Serine/threonine-protein kinase PAK 1 (Homo sapiens) (UniProt Q13153); test: PAK1 SGC Tm panel (DSF); conditions: Compound concentration 20.0 uM
Serine/threonine-protein kinase PAK 1 (Homo sapiens), sequence (Q13153 whole entry): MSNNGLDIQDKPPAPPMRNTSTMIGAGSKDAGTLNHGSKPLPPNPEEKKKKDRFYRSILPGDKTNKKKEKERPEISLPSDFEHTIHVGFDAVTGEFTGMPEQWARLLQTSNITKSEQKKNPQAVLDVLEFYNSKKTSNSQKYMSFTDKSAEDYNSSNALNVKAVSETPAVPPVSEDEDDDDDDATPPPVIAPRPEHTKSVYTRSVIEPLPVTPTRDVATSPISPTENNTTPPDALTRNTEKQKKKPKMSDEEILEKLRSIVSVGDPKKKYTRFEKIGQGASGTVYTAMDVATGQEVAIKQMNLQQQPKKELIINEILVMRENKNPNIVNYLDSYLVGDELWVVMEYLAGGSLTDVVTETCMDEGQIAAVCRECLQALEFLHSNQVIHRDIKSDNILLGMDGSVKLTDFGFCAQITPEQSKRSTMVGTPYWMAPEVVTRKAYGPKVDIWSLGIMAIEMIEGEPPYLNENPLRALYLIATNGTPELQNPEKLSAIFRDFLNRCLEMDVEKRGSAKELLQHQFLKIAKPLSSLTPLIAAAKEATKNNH

Calcium/calmodulin-dependent protein kinase type 1G (Homo sapiens), sequence (Q96NX5 whole entry, canonical isoform): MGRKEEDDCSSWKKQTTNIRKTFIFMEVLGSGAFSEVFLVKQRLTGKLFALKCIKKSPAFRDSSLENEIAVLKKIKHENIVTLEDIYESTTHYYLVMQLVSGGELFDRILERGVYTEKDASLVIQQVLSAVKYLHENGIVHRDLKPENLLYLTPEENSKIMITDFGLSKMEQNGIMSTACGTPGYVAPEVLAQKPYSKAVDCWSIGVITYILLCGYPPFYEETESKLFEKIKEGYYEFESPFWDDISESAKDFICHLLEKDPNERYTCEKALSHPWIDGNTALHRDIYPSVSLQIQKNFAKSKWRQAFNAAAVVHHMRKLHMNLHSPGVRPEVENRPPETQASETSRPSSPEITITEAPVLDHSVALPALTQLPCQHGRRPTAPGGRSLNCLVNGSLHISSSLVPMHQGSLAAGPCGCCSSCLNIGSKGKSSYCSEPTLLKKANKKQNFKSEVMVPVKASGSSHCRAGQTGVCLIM
Serine/threonine-protein kinase 4 (Homo sapiens), sequence (Q13043 whole entry): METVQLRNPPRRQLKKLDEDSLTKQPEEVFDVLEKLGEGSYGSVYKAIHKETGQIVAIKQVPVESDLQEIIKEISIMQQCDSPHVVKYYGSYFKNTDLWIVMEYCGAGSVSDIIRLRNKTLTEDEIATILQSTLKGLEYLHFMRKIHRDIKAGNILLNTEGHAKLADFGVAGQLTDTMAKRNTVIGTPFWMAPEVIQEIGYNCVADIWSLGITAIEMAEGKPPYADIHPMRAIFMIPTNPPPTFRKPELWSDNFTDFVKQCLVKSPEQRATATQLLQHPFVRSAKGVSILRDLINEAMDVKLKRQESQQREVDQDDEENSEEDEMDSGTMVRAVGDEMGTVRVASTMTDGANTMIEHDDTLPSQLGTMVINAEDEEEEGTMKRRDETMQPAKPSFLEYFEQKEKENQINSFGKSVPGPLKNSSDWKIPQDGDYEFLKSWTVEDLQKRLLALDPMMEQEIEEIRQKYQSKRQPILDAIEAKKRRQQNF

C[C@@H]1CN(c2ncc(Cl)c(Nc3ccc4c(c3)n(CCC(C)(C)O)c(=O)n4C)n2)C[C@H](C)C1(F)F
inactive: Tm [1] 46 °C | Tm [2] 44 °C | Tm [3] 52 °C | Tm [4] 42 °C | Tm [5] 56 °C | LogFC [6] -0.0152 | Tm [7] 50 °C | Tm [8] 45 °C | LogFC [9] -0.0504 | inhibition [10] 3.94% | Tm [11] 45 °C | Tm [12] 51 °C | Tm [13] 47 °C | Tm [14] 46 °C
